Results as given in the NIST ThermoML archive (doi:10.1021/je3013638).

Settings: Liquid, Closed cell (Static) method

Nc1cc(Cl)cc(Cl)c1 [3,5-dichloroaniline]
Settings	vapor or sublimation pressure [kPa]
446.6 K	10.25
453.88 K	12.95
457.69 K	14.44
463.14 K	16.64
464.4 K	17.2
466.41 K	18.21
468.53 K	19.57
469.09 K	19.87
470.18 K	20.2
473.66 K	22.16
474.48 K	23.01
475.29 K	23.48
477.65 K	24.67
481.31 K	27.19
484.05 K	29.6
487.88 K	32.05
490.85 K	35.09
492.54 K	36.63
495.3 K	38.71
497.31 K	41.11
500.72 K	44.06
503.96 K	47.64
507.34 K	51.52
509.76 K	55.17
512.08 K	58.05
513.94 K	60.01
516.09 K	63.13
518.15 K	66.66
519.82 K	68.55
521.75 K	71.6
523.61 K	75.31
525.72 K	78.65
528.31 K	82.54
530.51 K	87.17
532.9 K	91.08
534.94 K	95.84
